Assay results published in PubChem BioAssay AID248 (DTP/NCI, 2004).
Values joined by “and” are separate entries in the source; they are usually repeats but may differ in a detail not shown here. Equal values may be shown once. Toxic doses and inconclusive results are not listed. Rule as the data show it: active = T/C of 150% or more; inactive = T/C below 125%.

Test system: L1210 leukemia ip in BDF1 mice, survival T/C
Experiment: NCI In Vivo Anticancer Drug Screen. Data for tumor model L1210 Leukemia (intraperitoneal) in B6D2F1 (BDF1) mice
Settings: endpoint: mean survival time, higher = longer survival
Method in brief: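 Value reflects the ratio of survival in compound-treated mice to survival in vehicle-treated controls, with both groups carrying the same transplanted tumor.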

[1] = dose: 100.0 mg/kg/injection, schedule: Q01DX001 (ip), vehicle: carboxymethylcellulose (CMC)
[2] = dose: 200.0 mg/kg/injection, schedule: Q01DX001 (ip), vehicle: carboxymethylcellulose (CMC)
[3] = dose: 400.0 mg/kg/injection, schedule: Q01DX001 (ip), vehicle: carboxymethylcellulose (CMC)
[4] = dose: 100.0 mg/kg/injection, schedule: Q01DX001 (ip), vehicle: Klucel (hydroxypropylcellulose) (HPC)
[5] = dose: 200.0 mg/kg/injection, schedule: Q01DX001 (ip), vehicle: Klucel (hydroxypropylcellulose) (HPC)
[6] = dose: 100.0 mg/kg/injection, schedule: Q04DX003 (ip), vehicle: Klucel (hydroxypropylcellulose) (HPC)
[7] = dose: 200.0 mg/kg/injection, schedule: Q04DX003 (ip), vehicle: Klucel (hydroxypropylcellulose) (HPC)
[8] = dose: 400.0 mg/kg/injection, schedule: Q04DX003 (ip), vehicle: Klucel (hydroxypropylcellulose) (HPC)
[9] = dose: 100.0 mg/kg/injection, schedule: Q01DX009 (ip), vehicle: Klucel (hydroxypropylcellulose) (HPC)
[10] = dose: 200.0 mg/kg/injection, schedule: Q01DX009 (ip), vehicle: Klucel (hydroxypropylcellulose) (HPC)
[11] = dose: 400.0 mg/kg/injection, schedule: Q01DX009 (ip), vehicle: Klucel (hydroxypropylcellulose) (HPC)
[12] = dose: 100.0 mg/kg/injection, schedule: Q01DX009 (ip), vehicle: saline with Tween-80
[13] = dose: 400.0 mg/kg/injection, schedule: Q01DX009 (ip), vehicle: saline with Tween-80

Measured: T/C

CCOC(=O)CC(N)=O
inactive: dose: 100.0 mg/kg/injection, schedule: Q04DX002 (ip), vehicle: saline 111 % of control | dose: 200.0 mg/kg/injection, schedule: Q04DX002 (ip), vehicle: saline 96 % of control | dose: 400.0 mg/kg/injection, schedule: Q04DX002 (ip), vehicle: saline 104 % of control

CC1C/C=C2\CSC(NC(=O)/C3=C\N(C/C=C/C=C/C(O)CC(O)CC(=O)N3)C2=O)C(=O)O1 (stereo unspecified)
inactive: dose: 10.6 mg/kg/injection, schedule: Q01DX Z (ip), vehicle: saline 100 % of control | dose: 16.0 mg/kg/injection, schedule: Q01DX Z (ip), vehicle: saline 106 % of control | dose: 24.0 mg/kg/injection, schedule: Q01DX Z (ip), vehicle: saline 106 % of control | dose: 36.0 mg/kg/injection, schedule: Q01DX Z (ip), vehicle: saline 103 % of control | [1] 110 % of control | [2] 94 % of control | [3] 97 % of control

CC[CH2][Sn]([CH2]CC)([CH2]CC)[O]C(=O)C(Cl)(Cl)Cl
inactive: dose: 0.39 mg/kg/injection, schedule: Q01DX009 (ip), vehicle: saline with Tween-80 87 % of control | dose: 0.78 mg/kg/injection, schedule: Q01DX009 (ip), vehicle: saline with Tween-80 98 % of control | dose: 1.56 mg/kg/injection, schedule: Q01DX009 (ip), vehicle: saline with Tween-80 91 % of control

O=Cc1c(Cl)[nH]c2ccccc12
inactive: dose: 50.0 mg/kg/injection, schedule: Q04DX002 (ip), vehicle: Klucel (hydroxypropylcellulose) (HPC) 90 % of control | dose: 100.0 mg/kg/injection, schedule: Q04DX002 (ip), vehicle: Klucel (hydroxypropylcellulose) (HPC) 93 % of control | dose: 200.0 mg/kg/injection, schedule: Q04DX002 (ip), vehicle: Klucel (hydroxypropylcellulose) (HPC) 101 % of control

Cc1ccccc1C(=O)Nc1ccccc1
inactive: dose: 50.0 mg/kg/injection, schedule: Q01DX009 (ip), vehicle: saline 103 % of control | dose: 100.0 mg/kg/injection, schedule: Q01DX009 (ip), vehicle: saline 100 % of control | dose: 200.0 mg/kg/injection, schedule: Q01DX009 (ip), vehicle: saline 103 % of control

O=C(NCCCN1CC1)C(=O)Nc1ccccc1
inactive: dose: 12.5 mg/kg/injection, schedule: Q04DX003 (ip), vehicle: Klucel (hydroxypropylcellulose) (HPC) 92 % of control | dose: 25.0 mg/kg/injection, schedule: Q04DX003 (ip), vehicle: Klucel (hydroxypropylcellulose) (HPC) 101 % of control

COC(/C=C/c1ccccc1)=N\S(=O)(=O)c1ccccc1
inactive: dose: 50.0 mg/kg/injection, schedule: Q01DX001 (ip), vehicle: Klucel (hydroxypropylcellulose) (HPC) 98 % of control | [4] 100 % of control | [5] 107 % of control

[N-]=[N+]=C1c2ccccc2-c2ccccc21
inactive: [4] 94 % of control | [6] 104 % of control | [5] 93 % of control | [7] 90 % of control | dose: 400.0 mg/kg/injection, schedule: Q01DX001 (ip), vehicle: Klucel (hydroxypropylcellulose) (HPC) 91 % of control | [8] 101 % of control

CC1=C/C(=N/N=c2\ccn(O)cc2C)C=CC1=N
inactive: dose: 50.0 mg/kg/injection, schedule: Q04DX002 (sc), vehicle: saline with Tween-80 100 % of control | dose: 100.0 mg/kg/injection, schedule: Q04DX002 (sc), vehicle: saline with Tween-80 100 % of control | dose: 200.0 mg/kg/injection, schedule: Q04DX002 (sc), vehicle: saline with Tween-80 100 % of control | dose: 400.0 mg/kg/injection, schedule: Q04DX002 (sc), vehicle: saline with Tween-80 93 % of control

CC(O)c1ccc(-c2ccccc2)cc1 (stereo unspecified)
inactive: [9] 94 % of control | [6] 95 % of control | [10] 97 % of control | [7] 101 % of control | [11] 111 % of control | [8] 98 % of control

O=C(NCc1cnccn1)Oc1ccc([N+](=O)[O-])cc1
inactive: dose: 50.0 mg/kg/injection, schedule: Q01DX009 (ip), vehicle: saline with Tween-80 93 % of control | [12] 103 % of control | [13] 98 % of control

OC(Cc1cc(CC(O)(C(F)(F)F)C(F)(F)F)ncn1)(C(F)(F)F)C(F)(F)F
inactive: [12] 108 % of control | dose: 200.0 mg/kg/injection, schedule: Q01DX009 (ip), vehicle: saline with Tween-80 97 % of control | [13] 97 % of control

CC1=NN(c2ccc(S(=O)(=O)O)cc2Cl)C(=O)C1
inactive: dose: 100.0 mg/kg/injection, schedule: Q04DX003 (ip), vehicle: saline with Tween-80 101 % of control | dose: 200.0 mg/kg/injection, schedule: Q04DX003 (ip), vehicle: saline with Tween-80 98 % of control | dose: 400.0 mg/kg/injection, schedule: Q04DX003 (ip), vehicle: saline with Tween-80 90 % of control

Cc1ccc(S(=O)(=O)N(CCC#N)CCC#N)cc1
inactive: dose: 25.0 mg/kg/injection, schedule: Q01DX009 (ip), vehicle: Klucel (hydroxypropylcellulose) (HPC) 106 % of control | dose: 50.0 mg/kg/injection, schedule: Q01DX009 (ip), vehicle: Klucel (hydroxypropylcellulose) (HPC) 112 % of control | [9] 97 % of control and 101 % of control | [10] 92 % of control | [11] 96 % of control

Nc1c(Br)cccc1C(=O)O
inactive: dose: 100.0 mg/kg/injection, schedule: Q01DX001 (ip), vehicle: saline 104 % of control | dose: 200.0 mg/kg/injection, schedule: Q01DX001 (ip), vehicle: saline 102 % of control | dose: 400.0 mg/kg/injection, schedule: Q01DX001 (ip), vehicle: saline 101 % of control

CCCCCCC(=O)N(C(C)C)C(C)C
inactive: [1] 100 % of control | dose: 100.0 mg/kg/injection, schedule: Q01DX009 (ip), vehicle: carboxymethylcellulose (CMC) 103 % of control and 104 % of control | dose: 100.0 mg/kg/injection, schedule: Q04DX002 (ip), vehicle: carboxymethylcellulose (CMC) 98 % of control and 103 % of control | dose: 100.0 mg/kg/injection, schedule: Q04DX003 (ip), vehicle: carboxymethylcellulose (CMC) 104 % of control | [2] 98 % of control | dose: 200.0 mg/kg/injection, schedule: Q01DX009 (ip), vehicle: carboxymethylcellulose (CMC) 97 % of control and 100 % of control | dose: 200.0 mg/kg/injection, schedule: Q04DX002 (ip), vehicle: carboxymethylcellulose (CMC) 93 % of control and 98 % of control | dose: 200.0 mg/kg/injection, schedule: Q04DX003 (ip), vehicle: carboxymethylcellulose (CMC) 102 % of control | [3] 88 % of control | dose: 400.0 mg/kg/injection, schedule: Q01DX009 (ip), vehicle: carboxymethylcellulose (CMC) 93 % of control | dose: 400.0 mg/kg/injection, schedule: Q04DX002 (ip), vehicle: carboxymethylcellulose (CMC) 92 % of control

CCCCCCCCN(c1ccc(C#N)cc1)S(=O)(=O)c1ccc(C)cc1
inactive: dose: 75.0 mg/kg/injection, schedule: Q01DX009 (ip), vehicle: Klucel (hydroxypropylcellulose) (HPC) 92 % of control | dose: 150.0 mg/kg/injection, schedule: Q01DX009 (ip), vehicle: Klucel (hydroxypropylcellulose) (HPC) 87 % of control | dose: 300.0 mg/kg/injection, schedule: Q01DX009 (ip), vehicle: Klucel (hydroxypropylcellulose) (HPC) 97 % of control
